{
  "source": "patent US20030220482A1",
  "about": "“Novel peptide antagonist of CXCR4 derived from the N-terminus of the viral chemokine vMIP-II” (priority 2000, published 2003)",
  "key": {"CXCR4 [1]": {"target": "T1, CXCR4 (Homo sapiens, UniProt P61073)", "T1 sequence (P61073 whole entry)": "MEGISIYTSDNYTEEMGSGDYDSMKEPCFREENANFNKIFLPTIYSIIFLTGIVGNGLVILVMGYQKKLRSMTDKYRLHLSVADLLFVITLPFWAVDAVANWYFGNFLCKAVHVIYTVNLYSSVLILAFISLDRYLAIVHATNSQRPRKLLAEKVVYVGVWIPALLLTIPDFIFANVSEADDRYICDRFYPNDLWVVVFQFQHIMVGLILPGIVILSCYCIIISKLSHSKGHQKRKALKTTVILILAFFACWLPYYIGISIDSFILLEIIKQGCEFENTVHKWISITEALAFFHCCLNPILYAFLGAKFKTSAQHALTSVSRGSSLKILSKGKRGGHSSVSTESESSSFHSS", "assay": "Intracellular calcium influx in Sup T1 cells", "assay_type": "cell-based", "design": "endogenous in cells", "procedure": "(§1) Sup T1 cells and CCR5 transfected 293 cells were used to measure the intracellular calcium influx. [Ca^2+]i was measured using excitation at 340 and 380 nm on a fluorescence spectrometer (Perkin Elmer LS50). Calibration was performed using 10% Triton X-100 for total fluorophore release and 0.5 M EGTA to chelate free Ca^2+. Intracellular Ca^2+ concentrations were calculated by using the fluorescence spectrometer measurement program."}, "CCR5 [2]": {"target": "T2, CCR5 (Homo sapiens, UniProt P51681)", "T2 construct": "expressed in transfected cells; host or cells: 293 cells", "T2 sequence (P51681 whole entry)": "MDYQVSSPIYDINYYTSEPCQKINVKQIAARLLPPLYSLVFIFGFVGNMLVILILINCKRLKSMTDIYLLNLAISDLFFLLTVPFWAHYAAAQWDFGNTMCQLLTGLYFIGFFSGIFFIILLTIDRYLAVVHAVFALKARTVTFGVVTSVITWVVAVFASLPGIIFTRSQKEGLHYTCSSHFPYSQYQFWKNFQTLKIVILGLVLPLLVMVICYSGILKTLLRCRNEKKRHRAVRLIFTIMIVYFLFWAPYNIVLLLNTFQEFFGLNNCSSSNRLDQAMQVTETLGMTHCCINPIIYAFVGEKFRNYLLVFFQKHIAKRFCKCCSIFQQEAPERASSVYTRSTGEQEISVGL", "assay": "Intracellular calcium influx in CCR5 transfected 293 cells", "assay_type": "cell-based", "procedure": "as §1"}, "Sup T1 cells": {"tested_on": "Sup T1 cells", "assay": "Chemotaxis of Sup T1 cells induced by SDF-1", "assay_type": "cell-based", "procedure": "Migration of Sup T1 cells was assessed in disposable Transwell trays (Costar, Cambridge, Mass.) with 6.5 -mm diameter chambers and membrane pore size of […]. […] For peptide inhibition experiments, the cells were preincubated with various concentrations of the peptide for 15 min at 25° C. The peptide at the same concentration was also added to the lower well. After incubation at 37° C. and 5% CO2 for 4 h, cells that migrated to the lower well were counted. Chemotactic migration was determined by subtraction of cells migrated in medium alone (Blank control experiment)."}, "CXCR4 [3]": {"target": "T1, CXCR4", "assay": "125I-SDF-1α competitive binding to CXCR4 (CEM-T4 cells)", "design": "endogenous in cells; host or cells: CEM-T4 cells", "settings": "for CXCR4 binding (in words): 125I-SDF-1α competitive binding, FIG. 1", "procedure": "^125I-SDF-1α Competitive Binding to CXCR4\nCEM-T4 cells were harvested and washed twice with PBS. […] Nonspecific binding was determined by the addition of 100 nM unlabeled SDF-1α Samples were incubated for 60 min at room temperature. The incubation was terminated by separating the cells from the binding buffer by centrifugation and washing once with 500 μl of cold binding buffer. Bound ligands were quantitated by counting γ emissions."}, "CCR5 [4]": {"target": "T2, CCR5", "assay": "125I-MIP-1β competitive binding to CCR5 (CCR5-transfected 293 cells)", "settings": "competitive binding with radiolabeled MIP-1β", "excerpt": "^125I-MIP-1β Competitive Binding to CCR5\nFollowing a similar experimental procedure as described above, 293 cells transfected with CCR5 and ^125I-MIP-1β were used to determine the specific binding activity of peptides to CCR5."}, "CXCR4 [5]": {"target": "T1, CXCR4", "assay": "anti-CXCR4 mAb 12G5 competitive binding (flow cytometry, Sup T1 cells)", "design": "endogenous in cells", "settings": "relative to SDF-1", "procedure": "Sup T1 cells (2×10^5) were washed with FACS buffer (0.5% bovine serum albumin, 0.05% sodium azide in PBS) and incubated with an anti-CXCR4 monoclonal antibody (mAb) 12G5 (10 μg/ml) for 30 min at 4° C. After washing with FACS buffer, cells were incubated with 10 μg FITC conjugated goat anti-mouse IgG (Southern Biotechnology Associates, Inc. Birmingham, Ala.) for 30 min at 4° C. After washing twice with FACS buffer, cells were fixed in the fixing buffer (2% palaformaldehyde in PBS) and then analyzed on a FACScan flow cytometer (Coulter EPICS Elite, Coolten Corp., Hialeah, Fla.)."}, "CCR5 [6]": {"target": "T2, CCR5", "assay": "Gene reporter cell-cell fusion assay, HIV-1 coreceptor function of CCR5", "assay_type": "cell-based"}, "CXCR4 [7]": {"target": "T1, CXCR4", "assay": "Gene reporter cell-cell fusion assay, HIV-1 coreceptor function of CXCR4", "assay_type": "cell-based", "design": "expressed in transfected cells; host or cells: NIH/3T3 cells", "settings": "for inhibition of T- and dual-tropic HIV-1 gp120-mediated cell-cell fusion via CXCR4 (in words): vSC60 (BH10) T-tropic and 89.6 dual-tropic isolates"}, "CXCR4 [8]": {"target": "T1, CXCR4", "assay": "CXCR4 internalization", "assay_type": "cell-based", "design": "CEM-T4 cells were harvested and washed twice with PBS; endogenous in cells; host or cells: CEM-T4 cells"}},
  "note": "Entries after “also recorded” stand apart in the source; their conditions may differ. Peptide text beside a SMILES is read from it.",
  "data": [
    {"molecule": "CC(C)C[C@H](NC(=O)[C@H](CS)NC(=O)[C@H](CS)NC(=O)[C@H](CCCCN)NC(=O)[C@H](CC(=O)O)NC(=O)[C@@H]1CCCN1C(=O)[C@H](CCCNC(=N)N)NC(=O)[C@H](Cc1c[nH]cn1)NC(=O)[C@H](Cc1c[nH]c2ccccc12)NC(=O)[C@H](CO)NC(=O)[C@H](C)NC(=O)CNC(=O)[C@@H](N)CC(C)C)C(=O)NCC(=O)N[C@@H](Cc1ccc(O)cc1)C(=O)N[C@@H](CCC(N)=O)C(=O)N[C@@H](CCCCN)C(=O)N[C@@H](CCCNC(=N)N)C(=O)N1CCC[C@H]1C(=O)N[C@@H](CC(C)C)C(=O)N1CCC[C@H]1C(N)=O", "note": "[V1] (H-LGASWHRPDKCCLGYQKRPLP-NH2; N-terminus and C-terminus assumed)", "values": [
      {"measurement": "blocking of SDF-1 signal (calcium influx, in words)", "setting": "CXCR4 [1]; peptide 200 μM, SDF-1 100 nM", "result": "almost completely blocked SDF-1 signal"},
      {"measurement": "signaling activity via CXCR4 (calcium influx, in words)", "setting": "CXCR4 [1]; various concentrations", "result": "did not show any signaling activity"},
      {"measurement": "signaling activity via CCR5 (calcium influx, in words)", "setting": "CCR5 [2]", "result": "neither displayed signaling activity"},
      {"measurement": "blocking of signal induced by MIP-1β via CCR5 (in words)", "setting": "CCR5 [2]; MIP-1β 100 nM", "result": "nor blocked the signal"},
      {"measurement": "inhibition of chemotactic activity of SDF-1 (in words)", "setting": "Sup T1 cells", "result": "inhibit the chemotactic activity of SDF-1 in a concentration dependent manner"},
      {"measurement": "fold less potent than SDF-1, 125I-SDF-1α competition", "setting": "CXCR4 [3]; relative to SDF-1", "result": "~70", "unit": "fold"},
      {"measurement": "CCR5 binding (in words)", "setting": "CCR5 [4]", "result": "did not display any interaction"},
      {"measurement": "fold less potent than SDF-1, mAb 12G5 competition", "setting": "CXCR4 [5]", "result": "about 33 fold"},
      {"measurement": "effect on M-tropic HIV-1 gp120-mediated cell-cell fusion via CCR5 (in words)", "setting": "CCR5 [6]", "result": "displayed no effect"},
      {"measurement": "inhibition of T- and dual-tropic HIV-1 gp120-mediated cell-cell fusion via CXCR4 (in words)", "setting": "CXCR4 [7]", "result": "showed inhibition"},
      {"measurement": "induction of CXCR4 internalization (in words)", "setting": "CXCR4 [8]", "result": "induction of CXCR4 internalization"}
    ]},
    {"molecule": "HRPDKCCLGYQKR (v-MIPII derived peptide) [V2, VMIP-II, 6-18]", "values": [
      {"measurement": "effect on CXCR4 signal transduction (in words)", "setting": "CXCR4 [1]", "result": "did not show any effect"},
      {"measurement": "effect on CCR5 signal transduction (in words)", "setting": "CCR5 [2]", "result": "did not show any effect"},
      {"measurement": "CXCR4 binding (in words)", "setting": "CXCR4 [3]", "result": "significant loss in CXCR4 binding; also recorded: does not bind"},
      {"measurement": "CCR5 binding (in words)", "setting": "CCR5 [4]", "result": "does not bind"},
      {"measurement": "effect on M-tropic HIV-1 gp120-mediated cell-cell fusion via CCR5 (in words)", "setting": "CCR5 [6]", "result": "displayed no effect"},
      {"measurement": "inhibition of T- and dual-tropic HIV-1 gp120-mediated cell-cell fusion via CXCR4 (in words)", "setting": "CXCR4 [7]", "result": "did not show any activity"}
    ]},
    {"molecule": "LGASWHRPDK (v-MIPII derived peptide) [V3, VMIP-II, 1-10]", "values": [
      {"measurement": "CXCR4 binding (in words)", "setting": "CXCR4 [3]", "result": "retained some activity"}
    ]},
    {"molecule": "SDF-1: Recombinant human chemokine, Stromal cell Derived Factor-1, a natural CXCR4 ligand, used as control [reference compound]", "values": [
      {"measurement": "inhibition of cell-cell fusion", "setting": "CXCR4 [7]; at 200 nM", "result": 45, "unit": "%"}
    ]}
  ]
}
